Source: ChEMBL document CHEMBL2146469, “Mechanisms involved in the antinociceptive effects of 7-hydroxycoumarin” (J Nat Prod, 2011)
The source made the active and inactive calls.

How the values were obtained:
Mus musculus [1] = species: Mus musculus; conditions: Swiss, 5 mg/kg
Description: Inhibition of carrageenan-induced PGE2 production in Swiss mouse at 5 mg/kg, po dosed 45 mins before carrageenan dosing measured 3 hrs post carrageenan challenge by ELISA

Mus musculus [2] = assay: Gastric toxicity in Swiss mouse assessed as inflammatory cell index at 10 mg/kg administered as single dose (reference value: 0.2 +/- 0.2 inflammatory cell index); assay type: organism-based; parameters: dose 10 mg/kg; conditions: in vivo
Mus musculus [3] = assay: Gastric toxicity in Swiss mouse assessed as edema index at 10 mg/kg administered as single dose (reference value: 0.6 +/- 0.2 edema index); assay type: organism-based; parameters: dose 10 mg/kg; conditions: in vivo
Mus musculus [4] = assay: Gastric toxicity in Swiss mouse assessed as necrosis index at 10 mg/kg administered as single dose (reference value: 0 +/- 0 necrosis index); assay type: organism-based; parameters: dose 10 mg/kg; conditions: in vivo
Mus musculus [5] = assay: Gastric toxicity in Swiss mouse assessed as erosion index at 10 mg/kg administered as single dose (reference value: 0 +/- 0 erosion index); assay type: organism-based; parameters: dose 10 mg/kg; conditions: in vivo
Mus musculus [6] = assay: Antinociceptive activity in Swiss mouse inflammatory pain model assessed as reduction in hyperalgesia at 160 ug/paw dosed 45 mins before PGE2 dosing measured 3 hrs post PGE2 challenge; assay type: functional, organism-based
Mus musculus [7] = assay: Gastric toxicity in Swiss mouse assessed as edema index at 60 mg/kg administered daily with single dose (reference value: 0.6 +/- 0.2 edema index); assay type: organism-based; parameters: dose 60 mg/kg; conditions: in vivo
Mus musculus [8] = assay: Toxicity in Swiss mouse assessed as corporal mass changes at 60 mg/kg, po dosed once daily for 7 days (reference value: 0.58 +/- 0.03 g); assay type: organism-based; parameters: dose 60 mg/kg, route oral; conditions: in vivo, 168 h
Mus musculus [9] = assay: Toxicity in Swiss mouse assessed as ALT level at 60 mg/kg, po dosed once daily for 7 days (reference value: 68.0 +/- 12.8 UI/L); assay type: organism-based; parameters: dose 60 mg/kg, route oral; conditions: in vivo, 168 h
Mus musculus [10] = assay: Toxicity in Swiss mouse assessed as creatinine level at 60 mg/kg, po dosed once daily for 7 days (reference value: 0.26 +/- 0.05 mg/dL); assay type: organism-based; parameters: dose 60 mg/kg, route oral; conditions: in vivo, 168 h
Mus musculus [11] = assay: Inhibition of carrageenan-induced neutrophil migration to paw tissue in Swiss mouse at 60 mg/kg, po dosed 45 mins before carrageenan dosing measured 3 to 4 hrs post […] challenge by myeloperoxidase kinetic colorimetric assay; assay type: functional, organism-based; parameters: dose 60 mg/kg
Mus musculus [12] = assay: Toxicity in Swiss mouse assessed as AST level at 60 mg/kg, po dosed once daily for 7 days (reference value: 145.7 +/- 23.4 UI/L); assay type: organism-based; parameters: dose 60 mg/kg, route oral; conditions: in vivo, 168 h
Mus musculus [13] = assay: Toxicity in Swiss mouse assessed as kidney weight changes per 10 gram of body weight at 60 mg/kg, po dosed once daily for 7 days (reference value: 0.06 +/- 0.00 g/10 g body weight); assay type: organism-based; parameters: dose 60 mg/kg, route oral; conditions: in vivo, 168 h
Mus musculus [14] = assay: Antinociceptive activity in Swiss mouse inflammatory pain model assessed as reduction in mechanical hyperalgesia at 30 to 120 mg/kg, po dosed 45 mins before complete Freund's adjuvant dosing measured 24 hrs post complete Freund's adjuvant challenge by electronic pressure-meter test; assay type: functional, organism-based
Mus musculus [15] = assay: Antinociceptive activity in Swiss mouse inflammatory pain model assessed as reduction in paw withdrawal response at 60 mg/kg, po dosed once daily for 7 days dosed 45 mins before complete Freund's adjuvant dosing measured post complete Freund's adjuvant challenge; assay type: functional, organism-based; parameters: dose 60 mg/kg
Mus musculus [16] = assay: Gastric toxicity in Swiss mouse assessed as inflammatory cell index at 60 mg/kg administered daily with single dose (reference value: 0.2 +/- 0.2 inflammatory cell index); assay type: organism-based; parameters: dose 60 mg/kg; conditions: in vivo
Mus musculus [17] = assay: Toxicity in Swiss mouse assessed as heart weight changes per 10 gram of body weight at 60 mg/kg, po dosed once daily for 7 days (reference value: 0.05 +/- 0.00 g/10 g body weight); assay type: organism-based; parameters: dose 60 mg/kg, route oral; conditions: in vivo, 168 h
Mus musculus [18] = assay: Toxicity in Swiss mouse assessed as liver weight changes per 10 gram of body weight at 60 mg/kg, po dosed once daily for 7 days (reference value: 0.73 +/- 0.07 g/10 g body weight); assay type: organism-based; parameters: dose 60 mg/kg, route oral; conditions: in vivo, 168 h
Mus musculus [19] = assay: Effect on baseline nociceptive threshold in Swiss mouse inflammatory pain model at 30 to 120 mg/kg, po dosed 45 mins before complete Freund's adjuvant dosing measured 4 to 24 hrs post complete Freund's adjuvant challenge by electronic pressure-meter test; assay type: functional, organism-based
Mus musculus [20] = assay: Antinociceptive activity in Swiss mouse inflammatory pain model assessed as reduction in mechanical hyperalgesia at 30 to 120 mg/kg, po dosed 45 mins before complete Freund's adjuvant dosing measured 2 hrs post complete Freund's adjuvant challenge by electronic pressure-meter test; assay type: functional, organism-based
Mus musculus [21] = assay: Inhibition of complete Freund's adjuvant-induced TNFalpha production in Swiss mouse at 60 mg/kg, po dosed 45 mins before complete Freund's adjuvant dosing measured up to 2 hrs post complete Freund's adjuvant challenge by ELISA; assay type: functional, organism-based; parameters: dose 60 mg/kg
Mus musculus [22] = assay: Antinociceptive activity in Swiss mouse inflammatory pain model assessed as reduction in hyperalgesia at 60 mg/kg, po dosed once daily for 7 days dosed 45 mins before carrageenan dosing measured 3 hrs post carrageenan challenge; assay type: functional, organism-based; parameters: dose 60 mg/kg
Mus musculus [23] = assay: Antinociceptive activity in Swiss mouse inflammatory pain model assessed as reduction in mechanical hyperalgesia at 30 to 120 mg/kg, po dosed 45 mins before complete Freund's adjuvant dosing measured 6 hrs post complete Freund's adjuvant challenge by electronic pressure-meter test; assay type: functional, organism-based
Mus musculus [24] = assay: Inhibition of carrageenan-induced PGE2 production in Swiss mouse at 60 mg/kg, po dosed 45 mins before carrageenan dosing measured 3 hrs post carrageenan challenge by ELISA; assay type: functional, organism-based; parameters: dose 60 mg/kg
Mus musculus [25] = assay: Inhibition of complete Freund's adjuvant-induced neutrophil migration to paw tissue in Swiss mouse at 60 mg/kg, po dosed 45 mins before complete Freund's adjuvant dosing measured 3 to 4 hrs post complete Freund's adjuvant challenge by myeloperoxidase kinetic colorimetric assay; assay type: functional, organism-based; parameters: dose 60 mg/kg
Mus musculus [26] = assay: Gastric toxicity in Swiss mouse assessed as necrosis index at 60 mg/kg administered daily with single dose (reference value: 0 +/- 0 necrosis index); assay type: organism-based; parameters: dose 60 mg/kg; conditions: in vivo
Mus musculus [27] = assay: Antinociceptive activity in Swiss mouse inflammatory pain model assessed as reduction in hyperalgesia at 60 mg/kg, po dosed once daily for 7 days dosed 45 mins before PGE2 dosing measured 3 hrs post PGE2 challenge; assay type: functional, organism-based; parameters: dose 60 mg/kg
Mus musculus [28] = assay: Gastric toxicity in Swiss mouse assessed as erosion index at 60 mg/kg administered daily with single dose (reference value: 0 +/- 0 erosion index); assay type: organism-based; parameters: dose 60 mg/kg; conditions: in vivo
Mus musculus [29] = assay: Toxicity in Swiss mouse assessed as total leukocytes level at 60 mg/kg, po dosed once daily for 7 days (reference value: 5.9 +/- 0.8 10^3/mL); assay type: organism-based; parameters: dose 60 mg/kg, route oral; conditions: in vivo, 168 h
Mus musculus [30] = assay: Antinociceptive activity in Swiss mouse inflammatory pain model assessed as reduction in paw edema at 60 mg/kg, po dosed once daily for 7 days dosed 45 mins before complete Freund's adjuvant dosing measured post complete Freund's adjuvant challenge; assay type: functional, organism-based; parameters: dose 60 mg/kg
Mus musculus [31] = assay: Antinociceptive activity in Swiss mouse inflammatory pain model assessed as reduction in paw withdrawal response at 60 mg/kg, po dosed once daily for 7 days dosed 45 mins before complete Freund's adjuvant dosing measured 2 days post compound withdrawal; assay type: functional, organism-based; parameters: dose 60 mg/kg
Mus musculus [32] = assay: Antinociceptive activity in Swiss mouse inflammatory pain model assessed as reduction in hyperalgesia at 120 mg/kg, po dosed once daily for 7 days dosed 45 mins before PGE2 dosing measured 3 hrs post PGE2 challenge; assay type: functional, organism-based; parameters: dose 120 mg/kg
Mus musculus [33] = assay: Inhibition of complete Freund's adjuvant-induced IL-1beta production in Swiss mouse at 60 mg/kg, po dosed 45 mins before complete Freund's adjuvant dosing measured up to 24 hrs post complete Freund's adjuvant challenge by ELISA; assay type: functional, organism-based; parameters: dose 60 mg/kg
Mus musculus [34] = assay: Antinociceptive activity in Swiss mouse inflammatory pain model assessed as reduction in paw withdrawal response at 2 mg/kg, sc dosed once daily for 7 days dosed 45 mins before complete Freund's adjuvant dosing measured post complete Freund's adjuvant challenge; assay type: functional, organism-based; parameters: dose 2 mg/kg
Mus musculus [35] = assay: Antinociceptive activity in Swiss mouse inflammatory pain model assessed as reduction in mechanical hyperalgesia at 2 mg/kg, sc dosed 45 mins before complete Freund's adjuvant dosing measured 4 to 24 hrs post complete Freund's adjuvant challenge by electronic pressure-meter test; assay type: functional, organism-based; parameters: dose 2 mg/kg
Mus musculus [36] = assay: Inhibition of carrageenan-induced neutrophil migration to paw tissue in Swiss mouse at 2 mg/kg, sc dosed 45 mins before carrageenan dosing measured 3 to 4 hrs post […] challenge by myeloperoxidase kinetic colorimetric assay; assay type: functional, organism-based; parameters: dose 2 mg/kg
Mus musculus [37] = assay: Antinociceptive activity in Swiss mouse inflammatory pain model assessed as reduction in hyperalgesia at 0.5 mg/kg, sc dosed once daily for 7 days dosed 45 mins before carrageenan dosing measured 3 hrs post carrageenan challenge; assay type: functional, organism-based; parameters: dose 0.5 mg/kg
Mus musculus [38] = assay: Inhibition of complete Freund's adjuvant-induced neutrophil migration to paw tissue in Swiss mouse at 2 mg/kg, sc dosed 45 mins before complete Freund's adjuvant dosing measured 3 to 4 hrs post complete Freund's adjuvant challenge by myeloperoxidase kinetic colorimetric assay; assay type: functional, organism-based; parameters: dose 2 mg/kg
Mus musculus [39] = assay: Inhibition of complete Freund's adjuvant-induced IL-1beta production in Swiss mouse at 2 mg/kg, sc dosed 45 mins before complete Freund's adjuvant dosing measured up to 24 hrs post complete Freund's adjuvant challenge by ELISA; assay type: functional, organism-based; parameters: dose 2 mg/kg
Mus musculus [40] = assay: Inhibition of complete Freund's adjuvant-induced TNFalpha production in Swiss mouse at 2 mg/kg, sc dosed 45 mins before complete Freund's adjuvant dosing measured up to 2 hrs post complete Freund's adjuvant challenge by ELISA; assay type: functional, organism-based; parameters: dose 2 mg/kg
Mus musculus [41] = assay: Antinociceptive activity in Swiss mouse inflammatory pain model assessed as reduction in paw edema at 2 mg/kg, sc dosed once daily for 7 days dosed 45 mins before complete Freund's adjuvant dosing measured post complete Freund's adjuvant challenge; assay type: functional, organism-based; parameters: dose 2 mg/kg

Q: `CS(=O)(=O)Nc1ccc([N+](=O)[O-])cc1Oc1ccccc1` was tested. Which inhibition (Mus musculus [1]) did it give?
A: Active

Q: With `COc1ccc2c(c1)c(CC(=O)O)c(C)n2C(=O)c1ccc(Cl)cc1` [INDOMETHACIN] as the compound, how does the Activity (Mus musculus [2]) read?
A: 4

Q: What about the Activity (Mus musculus [3]) of the same compound?
A: 2.6

Q: And the Activity (Mus musculus [4])?
A: 0

Q: And the Activity (Mus musculus [5])?
A: 3

Q: How did the Activity (Mus musculus [6]) turn out when `Cc1c(N(C)CS(=O)(=O)O)c(=O)n(-c2ccccc2)n1C` was run?
A: Active

Q: What does the source list for `O=c1ccc2ccc(O)cc2o1` [UMBELLIFERONE]?
A: Activity (Mus musculus [7]): 0.7; Activity (Mus musculus [8]): 0.6 g; Activity (Mus musculus [9]): 51 IU/L; Activity (Mus musculus [10]): 0.27 mg/dL; inhibition (Mus musculus [11]): Active; Activity (Mus musculus [12]): 115 IU/L; Activity (Mus musculus [13]): 0.07 g; Activity (Mus musculus [14]): Dose-dependent effect; Activity (Mus musculus [15]): Active; Activity (Mus musculus [16]): 0.4; Activity (Mus musculus [17]): 0.05 g; Activity (Mus musculus [18]): 0.72 g; Activity (Mus musculus [19]): inactive; Activity (Mus musculus [20]): Dose-dependent effect; inhibition (Mus musculus [21]): Active; Activity (Mus musculus [22]): Active; Activity (Mus musculus [23]): Dose-dependent effect; inhibition (Mus musculus [24]): Active; inhibition (Mus musculus [25]): Active; Activity (Mus musculus [26]): 0; Activity (Mus musculus [27]): inactive; Activity (Mus musculus [28]): 0; Activity (Mus musculus [29]): 6.725 ×10³ /ml; Activity (Mus musculus [30]): Active; Activity (Mus musculus [31]): inactive; Activity (Mus musculus [32]): inactive; inhibition (Mus musculus [33]): Active

Q: For `C[C@@H]1C[C@H]2[C@@H]3CCC4=CC(=O)C=C[C@]4(C)[C@@]3(F)[C@@H](O)C[C@]2(C)[C@@]1(O)C(=O)CO`, which Activity (Mus musculus [34]) is on record?
A: Active

Q: What about the Activity (Mus musculus [35]) of the same compound?
A: Active

Q: And the inhibition (Mus musculus [36])?
A: Active

Q: What about the Activity (Mus musculus [37]) of the same compound?
A: Active

Q: And the inhibition (Mus musculus [38])?
A: Active

Q: And the inhibition (Mus musculus [39])?
A: Active

Q: What about the inhibition (Mus musculus [40]) of the same compound?
A: Active

Q: And the Activity (Mus musculus [41])?
A: Active
